The record followed here is ChEMBL document CHEMBL1147250, “Enhancement of the antiplasmodial activity of quassin by transformation into a gamma-lactone” (J Nat Prod, 2003).

Series [1] deals with Plasmodium falciparum. Description: Antiplasmodial activity against chloroquine-resistant Plasmodium falciparum K1 infected erythrocytes by [3H]hypoxanthine uptake. In kind it is functional, organism-based.
The subject of series [2] is Plasmodium falciparum. Description: Antiplasmodial activity against Plasmodium falciparum K1.
Series [3] is described as follows: Selectivity index, ratio of IC50 for human KB cells to IC50 for Plasmodium falciparum K1. The format is toxicity, cell-based. To be noted: KB cells (cytotoxicity) versus Plasmodium falciparum K1, read-out: Selectivity Index.

Molecules are shown by their SMILES.

Regarding `COC1=C[C@@H](C)[C@@H]2C[C@H]3O[C@@H](O)[C@H]4C(C)=C(OC)C(=O)[C@H]([C@@]2(C)C1=O)[C@]43C` [QUASSILACTOL], the IC50 (in general, the concentration that inhibits the measured activity by half) in the series with Plasmodium falciparum [1] amounted to 576 µM; with Plasmodium falciparum [2], 65 µM. Also, in series [3], the selectivity ratio came to 8.9.

As to `COC1=C[C@@H](C)[C@@H]2C[C@H]3OC(O)[C@H](O)[C@H]4C(C)=C(OC)C(=O)[C@H]([C@@]2(C)C1=O)[C@]43C` (some centres not stated) [HYDROXYNEOQUASSINS], the half-inhibitory concentration (IC50) in the series on Plasmodium falciparum [2] was determined as 68 µM.

With `COC1=C[C@@H](C)[C@@H]2C[C@H]3OC(=O)[C@H](O)[C@H]4C(C)=C(OC)C(=O)[C@H]([C@@]2(C)C1=O)[C@]43C`, the IC50 with Plasmodium falciparum [1] was greater than 1000 µM; with Plasmodium falciparum [2] it was 930 µM. Besides, the selectivity ratio in series [3] was greater than 1.1.

As for `COC1=C[C@@H](C)[C@@H]2C[C@H]3OC=C[C@H]4C(C)=C(OC)C(=O)[C@H]([C@@]2(C)C1=O)[C@@]34C` [ANHYDROQUASSIN], the IC50 is greater than 1000 µM in the series with Plasmodium falciparum [1] and 809 µM in the series with Plasmodium falciparum [2]. The selectivity ratio in series [3] is greater than 1.

For `CCN(CC)CCCC(C)Nc1ccnc2cc(Cl)ccc12` (configuration not stated) [CHLOROQUINE PHOSPHATE], the concentration for half-maximal inhibition (IC50) in the series with Plasmodium falciparum [2] turned out to be 0.6 µM.

For the compound `COC1=C[C@@H](C)[C@@H]2C[C@H]3OC(OC(=O)c4cccc(Cl)c4)[C@H](O)[C@H]4C(C)=C(OC)C(=O)[C@H]([C@@]2(C)C1=O)[C@]43C` (some centres not stated), the values for the half-inhibitory concentration (IC50) with Plasmodium falciparum [1] and in the series with Plasmodium falciparum [2] were 232 µM and 1.8 µM, respectively. Further, in series [3], the selectivity ratio is 112.

Consider `COC1=C[C@@H](C)[C@@H]2C[C@H]3OC(OC4C[C@H]5C(C)=C(OC)C(=O)[C@@H]6[C@@]7(C)C(=O)C(OC)=C[C@@H](C)[C@@H]7C[C@@H](O4)[C@]65C)C[C@H]4C(C)=C(OC)C(=O)[C@H]([C@@]2(C)C1=O)[C@@]34C` (some centres not stated) [NEOQUASSIN ETHER], for which the IC50 was 149 µM in the series with Plasmodium falciparum [1] and 9.7 µM in the series on Plasmodium falciparum [2]. Further, the selectivity ratio in series [3] is 15.3.

`CC[C@H]1CN2CCc3cc(OC)c(OC)cc3[C@@H]2C[C@@H]1C[C@H]1NCCc2cc(OC)c(OC)cc21` came in with an IC50 in the series with Plasmodium falciparum [1] of 0.96 µM.

With `COC1=C[C@@H](C)[C@@H]2C[C@H]3OC(O)C[C@H]4C(C)=C(OC)C(=O)[C@H]([C@@]2(C)C1=O)[C@@]34C` (some centres not stated) [NEOQUASSIN], the 50% inhibitory concentration (IC50) in the series with Plasmodium falciparum [1] was 615 µM; with Plasmodium falciparum [2], 473 µM. Besides, in series [3], the selectivity ratio is 1.3.

As for `COC1=C[C@@H](C)[C@@H]2C[C@H]3OC(=O)[C@H]4C(C)=C(OC)C(=O)[C@H]([C@@]2(C)C1=O)[C@]43C` [QUASSILACTONE], the IC50 was 406 µM in the series with Plasmodium falciparum [1] and 23 µM with Plasmodium falciparum [2]. Further, the selectivity ratio in series [3] stood at 17.7.

In the case of `COC1=C[C@@H](C)[C@@H]2C[C@H]3OC(=O)C[C@H]4C(C)=C(OC)C(=O)[C@H]([C@@]2(C)C1=O)[C@@]34C` [QUASSIN], the figures for the IC50 with Plasmodium falciparum [1] and in the series on Plasmodium falciparum [2] were greater than 1000 µM and 911 µM, respectively. Also, the selectivity ratio in series [3] is greater than 1.
